“Also recorded” adds a separate entry of the source.

The source of these data is article PMC11327196, “A phase 1 study to assess the absolute bioavailability, mass balance, pharmacokinetics, metabolism, and excretion of [^14C]-mobocertinib, an oral inhibitor of EGFR exon 20 insertion mutations, in healthy participants” (Investigational New Drugs, 2024).

Details of data set [1]: method as in PMID 34145979. Particulars: healthy participants, cited from earlier work.
Data set [2] in a line: Period 2 human ADME study: plasma PK after oral solution [14C]-mobocertinib. Format: in vivo. On the procedure:
This was a two-period, open-label, single-dose phase 1 study (NCT03811834) conducted at one clinical site (Celerion, Lincoln, Nebraska, USA) in healthy male participants. The primary objective of Period 1 was to determine the absolute bioavailability of mobocertinib following a single oral dose of 160 mg mobocertinib as capsules and a single intravenous (IV) microdose of 50 µg (~ 2 µCi) [^14C]-mobocertinib. The primary objectives of Period 2 were to (1) assess the cumulative excretion of total radioactivity in urine and feces (mass balance); (2) assess the metabolite profile of mobocertinib in plasma, urine, and feces; and (3) characterize the PK of mobocertinib, AP32960, and AP32914 in plasma, whole blood, and urine, and total radioactivity concentration equivalents in plasma and whole blood following a single oral dose of 160 mg (~ 100 µCi) [^14C]-mobocertinib as an oral solution. A sample size of 6 healthy males was selected without statistical considerations and deemed adequate to meet the study objectives. Furthermore, the sample size was limited based on clinical considerations for human ADME studies and to limit exposure to radioactivity.
After a washout of 8–9 days, participants returned to the clinic for Day − 1 of Period 2. On Day 1 of Period 2, after a fast of ≥ 10 h, participants received a single nominal dose of 160 mg (~ 100 µCi; whole body effective dose of 5.3 mrem for a 70-kg human) [^14C]-mobocertinib as a 70 mL oral solution. The actual doses administered ranged from 161 to 163 mg (92.4 to 93.9 µCi). Participants stayed in the clinic from Day − 1 until a discharge criterion (≥ 80% of the total administered radioactive dose was recovered in urine and feces or excretion of radioactivity in urine and feces combined had declined to ≤ 1% of the total administered dose per day for ≥ 2 consecutive intervals) was met, or up to 10 days postdose. To measure the total radioactivity and concentrations of mobocertinib, AP32960, and AP32914 in whole blood and plasma, 4 blood samples were collected predose, and at 0.5, 1, 2, 3, 4, 5, 6, 8, 12, 24, 36, 48, 72, 96, 120, 144, 168, 192, 216, and 240 h postdose; a fifth blood sample was collected for plasma metabolite profiling at predose and 1, 2, 4, 6, 12, 24, 48, 72, 96, 120, and 168 h postdose. Feces and urine were collected predose (feces within 48 h and urine within 24 h prior to dosing), 0–24 h (urine from 0–12 and 12–24 h), and then at 24-hour intervals up to 240 h postdose or until a discharge criterion was met. […] These 2 participants continued with at-home fecal sample collections. One participant provided fecal samples until Day 13 (264–288 h interval) and one participant provided fecal samples until Day 19 (408–432 h interval), after which they met a discharge criterion.
Plasma, whole blood, and urine samples were assayed for mobocertinib, AP32960, and AP32914 concentrations using liquid chromatography-tandem mass spectrometry (Q2 Solutions, Ithaca, New York, USA). The analytical range for each analyte was 0.250 to 500 ng/mL in whole blood and plasma, and 1.00 to 1000 ng/mL in urine. […] Urine and fecal samples were assayed for total radioactivity following the IV dose of [^14C]-mobocertinib in Period 1, and whole blood, plasma, urine, and fecal samples were assayed for total radioactivity following the oral dose of [^14C]-mobocertinib in Period 2 using liquid scintillation counting (LSC; Celerion, Lincoln, Nebraska, USA; LLOQs: Period 1 urine: 0.115–0.118 ng eq/g, feces: 0.720–0.759 ng eq/g; Period 2 whole blood: 87.3–112 ng eq/g, plasma: 116–132 ng eq/mL, urine: 37.8–46.8 ng eq/g, feces: 110–336 ng eq/g across participants). Urine and fecal samples collected in Period 1 that had total radioactivity concentration equivalents below the LLOQ of the Celerion LSC assay were sent to Pharmaron for measurement by AMS (LLOQ: urine: 0.0000253–0.00111 ng eq/g; feces: 0.000404–0.0278 ng eq/g across participants). The LSC and AMS assays were not cross-validated. […]

The nature of data set [3]: Safety assessments (adverse events) in healthy participants. The format is in vivo, human. On the procedure: Safety was evaluated based on the incidence and severity of AEs and changes from baseline in clinical laboratory results, vital signs, and ECG parameters. AEs were graded according to Common Terminology Criteria for Adverse Events version 5.0.
Where [4] appears, read: Period 2, oral solution 160 mg [14C]-mobocertinib, geometric mean (geometric CV%).
[5] abbreviates: male, human, Period 2, oral solution 160 mg [14C]-mobocertinib, geometric mean (geometric CV%).

Broadly, the AUC(0-inf) is total exposure, with the tail of the curve extrapolated. A low value points to less exposure. For orientation: AUC(0-t) means the area under the concentration-time curve up to a stated or last time point. Read a low AUC(0-t) as low exposure. As usually defined, the Cmax is the peak of the concentration-time curve. With `C=CC(=O)Nc1cc(Nc2ncc(C(=O)OC(C)C)c(-c3cn(C)c4ccccc34)n2)c(OC)cc1N(C)CCN(C)C` [Mobocertinib], the “decrease of combined molar AUC of mobocertinib and its active metabolites” value in data set [1] (coadministration of strong CYP3A inducer rifampin) is listed as 95%. Further, the “increase of combined molar AUC of mobocertinib and its active metabolites” value in data set [1] (coadministration of strong CYP3A inhibitor itraconazole) is 527%. Further, the “t1/2z of total radioactivity” value in data set [2] (Period 2, oral solution 160 mg [14C]-mobocertinib, exceeds duration of sampling, approximate estimate, geometric mean (geometric CV%)) is listed as approximately 281 h. For the same compound, in data set [2] (setting [4]), the CL/F is 169 (38.4) L/h and the “Molar AUC∞ ratio (analyte vs. total radioactivity)” value is 0.00172 (31.1). Besides, in data set [2] (Period 2, single oral solution 160 mg (~100 µCi) [14C]-mobocertinib, median (range)), the tmax is reported as 6.0 (3.0–6.0) h. Besides, in data set [2] (setting [5]), the AUC(0-inf) came out at 956 ng·h/mL, the AUC(0-t) stood at 945 ng·h/mL and the maximum concentration (Cmax) is 51 ng/mL. Further, in data set [2] (male, human, Period 2, oral solution 160 mg [14C]-mobocertinib, geometric mean (geometric CV%), read-out: Vz/F), the Vd/F stood at 5560 L. Also, in data set [2] (male, human, Period 2, oral solution 160 mg [14C]-mobocertinib, geometric mean (geometric CV%), read-out: t1/2z (converted)), the half-life is 22.8 h. For the same compound, in data set [3] (7 healthy male participants, Periods 1 and 2), the “deaths or serious AEs” value is “no deaths or serious AEs”. Moreover, the “severity of AEs” value in data set [3] (CTCAE version 5.0, both treatment periods) was “grade 1 (mild)”. Moreover, the “participants who experienced at least 1 AE” value (from here on “participants who experienced”) in data set [3] (Period 1) is recorded as 6. Besides, the “participants who experienced” value in data set [3] (Period 2) was 4. Further, in data set [3] (both treatment periods), the “overall safety and tolerability” value was “generally safe and well-tolerated; also recorded: no new safety signals observed”. In data set [3] (each in 2 of 7 participants), the “incidence of most common AEs (constipation, diarrhea, and nausea, each)” value was 29%. The “discontinuation because of AEs” value in data set [3] (eructation, nausea, salivary hypersecretion, vomiting on Day 1 of Period 1) is on record as “One participant discontinued the study early because of multiple AEs”. In addition, the “participants who experienced” value in data set [3] (of 7 participants, whole study) was 7.
